± gives the standard deviation of the averaged measurements.
Columns and labels:
Assay in all cases: relative viability vs DMSO control (72 h) (fraction); higher = more viable cells
HS729 = test system: HS729
Procedure, shortened: (§1)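 Relative viability was measured with ATPLite and expressed as percent growth, averaged across up to triplicate wells. Sarcoma cell lines had been seeded in 384-well plates to reach 80–90% confluence, dosed after 24 h, and incubated 72 h at 37 °C, 5% CO2. All data were rescaled on a scale where 1 is full and 0 is none.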

SK-LMS-1 = test system: SK-LMS-1
Procedure, shortened: as §1

MES-SA = test system: MES-SA
Procedure, shortened: as §1

G401 = test system: G401
Procedure, shortened: as §1

SW872 = test system: SW872
Procedure, shortened: as §1

A204 = test system: A204
Procedure, shortened: as §1

SYO-1 = test system: SYO-1
Procedure, shortened: as §1

KHOS-NP = test system: KHOS-NP
Procedure, shortened: as §1

SW684 = test system: SW684
Procedure, shortened: as §1

VA-ES-BJ = test system: VA-ES-BJ
Procedure, shortened: as §1

SW1353 = test system: SW1353
Procedure, shortened: as §1

HT1080 = test system: HT1080
Procedure, shortened: as §1

C[C@@H](Oc1cc(-c2cnn(C3CCNCC3)c2)cnc1N)c1c(Cl)ccc(F)c1Cl [Crizotinib]
relative viability (HS729; 0.00017 µM): 0.998 ± 0.027
relative viability (HS729; 0.00051 µM): 1.01 ± 0.056
relative viability (HS729; 0.00152 µM): 0.9714 ± 0.0055
relative viability (HS729; 0.00457 µM): 0.98 ± 0.026
relative viability (HS729; 0.01372 µM): 0.9284 ± 0.0071
relative viability (HS729; 0.04115 µM): 0.947 ± 0.045
relative viability (HS729; 0.1235 µM): 0.922 ± 0.059
relative viability (HS729; 0.3704 µM): 0.872 ± 0.041
relative viability (HS729; 1.111 µM): 0.744 ± 0.04
relative viability (HS729; 3.333 µM): 0.58 ± 0.036
relative viability (HS729; 10 µM): 0.0222 ± 0.013
relative viability (SK-LMS-1; 0.00017 µM): 1.03 ± 0.051
relative viability (SK-LMS-1; 0.00051 µM): 1.02 ± 0.058
relative viability (SK-LMS-1; 0.00152 µM): 1.01 ± 0.067
relative viability (SK-LMS-1; 0.00457 µM): 1.01 ± 0.015
relative viability (SK-LMS-1; 0.01372 µM): 0.996 ± 0.011
relative viability (SK-LMS-1; 0.04115 µM): 0.921 ± 0.029
relative viability (SK-LMS-1; 0.1235 µM): 0.641 ± 0.016
relative viability (SK-LMS-1; 0.3704 µM): 0.571 ± 0.038
relative viability (SK-LMS-1; 1.111 µM): 0.525 ± 0.022
relative viability (SK-LMS-1; 3.333 µM): 0.335 ± 0.02
relative viability (SK-LMS-1; 10 µM): 0.0176 ± 0.0015
relative viability (MES-SA; 0.00017 µM): 0.943 ± 0.025
relative viability (MES-SA; 0.00051 µM): 0.935 ± 0.026
relative viability (MES-SA; 0.00152 µM): 0.943 ± 0.028
relative viability (MES-SA; 0.00457 µM): 0.944 ± 0.016
relative viability (MES-SA; 0.01372 µM): 0.946 ± 0.048
relative viability (MES-SA; 0.04115 µM): 0.969 ± 0.0048
relative viability (MES-SA; 0.1235 µM): 0.938 ± 0.015
relative viability (MES-SA; 0.3704 µM): 0.536 ± 0.023
relative viability (MES-SA; 1.111 µM): 0.434 ± 0.0077
relative viability (MES-SA; 3.333 µM): 0.27 ± 0.019
relative viability (MES-SA; 10 µM): -0.000833 ± 0.00042
relative viability (G401; 0.00017 µM): 1.01 ± 0.013
relative viability (G401; 0.00051 µM): 0.995 ± 0.027
relative viability (G401; 0.00152 µM): 1.01 ± 0.02
relative viability (G401; 0.00457 µM): 1.01 ± 0.014
relative viability (G401; 0.01372 µM): 1.01 ± 0.014
relative viability (G401; 0.04115 µM): 1.01 ± 0.018
relative viability (G401; 0.1235 µM): 0.9894 ± 0.0036
relative viability (G401; 0.3704 µM): 0.915 ± 0.042
relative viability (G401; 1.111 µM): 0.745 ± 0.022
relative viability (G401; 3.333 µM): 0.417 ± 0.023
relative viability (G401; 10 µM): 0.000367 ± 0.00012
relative viability (SW872; 0.00017 µM): 1.06 ± 0.016
relative viability (SW872; 0.00051 µM): 1.07 ± 0.047
relative viability (SW872; 0.00152 µM): 1.09 ± 0.034
relative viability (SW872; 0.00457 µM): 1.06 ± 0.044
relative viability (SW872; 0.01372 µM): 1.08 ± 0.056
relative viability (SW872; 0.04115 µM): 1.09 ± 0.05
relative viability (SW872; 0.1235 µM): 1.014 ± 0.0037
relative viability (SW872; 0.3704 µM): 0.921 ± 0.03
relative viability (SW872; 1.111 µM): 0.644 ± 0.04
relative viability (SW872; 3.333 µM): 0.463 ± 0.02
relative viability (SW872; 10 µM): -0.00847 ± 0.00051
relative viability (A204; 0.00017 µM): 1.07 ± 0.045
relative viability (A204; 0.00051 µM): 1.05 ± 0.042
relative viability (A204; 0.00152 µM): 1.08 ± 0.034
relative viability (A204; 0.00457 µM): 1.08 ± 0.012
relative viability (A204; 0.01372 µM): 1.1 ± 0.014
relative viability (A204; 0.04115 µM): 1.09 ± 0.025
relative viability (A204; 0.1235 µM): 1.08 ± 0.033
relative viability (A204; 0.3704 µM): 0.963 ± 0.046
relative viability (A204; 1.111 µM): 0.823 ± 0.099
relative viability (A204; 3.333 µM): 0.577 ± 0.036
relative viability (A204; 10 µM): 0.0123 ± 0.0047
relative viability (SYO-1; 0.00017 µM): 0.957 ± 0.032
relative viability (SYO-1; 0.00051 µM): 0.982 ± 0.062
relative viability (SYO-1; 0.00152 µM): 1 ± 0.03
relative viability (SYO-1; 0.00457 µM): 0.99 ± 0.05
relative viability (SYO-1; 0.01372 µM): 0.973 ± 0.058
relative viability (SYO-1; 0.04115 µM): 0.944 ± 0.034
relative viability (SYO-1; 0.1235 µM): 0.855 ± 0.024
relative viability (SYO-1; 0.3704 µM): 0.655 ± 0.044
relative viability (SYO-1; 1.111 µM): 0.346 ± 0.0093
relative viability (SYO-1; 3.333 µM): 0.13 ± 0.0073
relative viability (SYO-1; 10 µM): -0.00763 ± 0.0015
relative viability (KHOS-NP; 0.00017 µM): 1.11 ± 0.013
relative viability (KHOS-NP; 0.00051 µM): 1.107 ± 0.0066
relative viability (KHOS-NP; 0.00152 µM): 1.09 ± 0.028
relative viability (KHOS-NP; 0.00457 µM): 1.11 ± 0.019
relative viability (KHOS-NP; 0.01372 µM): 1.1 ± 0.038
relative viability (KHOS-NP; 0.04115 µM): 1.1 ± 0.021
relative viability (KHOS-NP; 0.1235 µM): 1.103 ± 0.0073
relative viability (KHOS-NP; 0.3704 µM): 1.103 ± 0.011
relative viability (KHOS-NP; 1.111 µM): 1.08 ± 0.043
relative viability (KHOS-NP; 3.333 µM): 0.974 ± 0.033
relative viability (KHOS-NP; 10 µM): 0.0806 ± 0.0086
relative viability (SW684; 0.00017 µM): 1.16 ± 0.061
relative viability (SW684; 0.00051 µM): 1.19 ± 0.069
relative viability (SW684; 0.00152 µM): 1.17 ± 0.052
relative viability (SW684; 0.00457 µM): 1.23 ± 0.026
relative viability (SW684; 0.01372 µM): 1.21 ± 0.044
relative viability (SW684; 0.04115 µM): 1.22 ± 0.045
relative viability (SW684; 0.1235 µM): 1.17 ± 0.023
relative viability (SW684; 0.3704 µM): 1.09 ± 0.023
relative viability (SW684; 1.111 µM): 0.976 ± 0.047
relative viability (SW684; 3.333 µM): 0.737 ± 0.044
relative viability (SW684; 10 µM): 0.0253 ± 0.0049
relative viability (VA-ES-BJ; 0.00017 µM): 1.06 ± 0.03
relative viability (VA-ES-BJ; 0.00051 µM): 1.05 ± 0.038
relative viability (VA-ES-BJ; 0.00152 µM): 1.06 ± 0.023
relative viability (VA-ES-BJ; 0.00457 µM): 1.06 ± 0.051
relative viability (VA-ES-BJ; 0.01372 µM): 1.04 ± 0.064
relative viability (VA-ES-BJ; 0.04115 µM): 0.975 ± 0.044
relative viability (VA-ES-BJ; 0.1235 µM): 0.899 ± 0.042
relative viability (VA-ES-BJ; 0.3704 µM): 0.764 ± 0.022
relative viability (VA-ES-BJ; 1.111 µM): 0.641 ± 0.03
relative viability (VA-ES-BJ; 3.333 µM): 0.505 ± 0.14
relative viability (VA-ES-BJ; 10 µM): 0.00337 ± 0.0035
relative viability (SW1353; 0.00017 µM): 1 ± 0.02
relative viability (SW1353; 0.00051 µM): 1 ± 0.058
relative viability (SW1353; 0.00152 µM): 1.018 ± 0.0041
relative viability (SW1353; 0.00457 µM): 0.987 ± 0.04
relative viability (SW1353; 0.01372 µM): 1.02 ± 0.033
relative viability (SW1353; 0.04115 µM): 0.996 ± 0.054
relative viability (SW1353; 0.1235 µM): 1.03 ± 0.012
relative viability (SW1353; 0.3704 µM): 1.01 ± 0.021
relative viability (SW1353; 1.111 µM): 0.999 ± 0.019
relative viability (SW1353; 3.333 µM): 0.679 ± 0.016
relative viability (SW1353; 10 µM): 0.00907 ± 0.0044
relative viability (HT1080; 0.00017 µM): 1.07 ± 0.017
relative viability (HT1080; 0.00051 µM): 1.05 ± 0.011
relative viability (HT1080; 0.00152 µM): 1.07 ± 0.013
relative viability (HT1080; 0.00457 µM): 1.09 ± 0.03
relative viability (HT1080; 0.01372 µM): 1.07 ± 0.043
relative viability (HT1080; 0.04115 µM): 1.07 ± 0.046
relative viability (HT1080; 0.1235 µM): 1.06 ± 0.032
relative viability (HT1080; 0.3704 µM): 1.07 ± 0.074
relative viability (HT1080; 1.111 µM): 1.01 ± 0.026
relative viability (HT1080; 3.333 µM): 0.754 ± 0.032
relative viability (HT1080; 10 µM): 0.00533 ± 0.0018
